Experimental data as given in patent publication US20230416239A1, “COMPOUNDS AND METHODS FOR TREATING A CYTOKINE-MEDIATED DISEASE” (CONSERVATOIRE NATIONAL DES ARTS ET MÉTIERS, priority 2020, published 2023).

Key:
TNFa/TNFRI interaction = TNFa/TNFRI interaction (Homo sapiens, UniProt P01375); assay: TNFa/TNFRI interaction displacement test; type: binding; details: for Displacement (%): compounds at 50 μM, human TNFRI 100 ng/ml;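 as to Displacement EC50 TNFa in presence of compound: Difference: SPD304 reference at 20 µM final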
How it was run: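 Plates coated overnight at 4° C with human TNFRI (100 ng/ml) and blocked with 2% BSA, then test mixtures were incubated overnight at 4° C. Bound cytokine detected with biotinylated anti-cytokine antibody (2 h, 37° C) and avidin-HRP, read as OD at 450 nm.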

[1] = system: hepatic shock induced by LPS/D-Galactosamine; assay: LPS/D-Galactosamine induced lethal shock; type: in vivo, Balb/C mice; details: 5 mg force-fed in DMSO eight hours before LPS/D-Galactosamine i.p.; 48 hours
Protocol: 7 week-old Balb/C mice (n=10 per group) were force-fed with 100 μl of a solution of DMSO containing 5 mg of compounds 33, 65 or 71 eight hours before receiving an intraperitoneal injection of 200 μl of PBS containing 0.2 μg of LPS and 20 mg of D-Galactosamine. A negative control group (vehicle) was force-fed with 100 μl of a solution of DMSO alone eight hours before to be injected with 200 μl of LPS/D-Galactosamine solution. Mice survival was monitored for 48 hours after the injection of LPS/D-Galactosamine.

IL-4 = biological target: T1, IL-4 (Homo sapiens, UniProt P05112); assay: Immunoassay binding test, IL-4; details: for IC50: IL-4 400 ng/ml, receptor 100 ng/ml, read-out: BINDING IL4 IC50
T1 sequence (P05112 25-153): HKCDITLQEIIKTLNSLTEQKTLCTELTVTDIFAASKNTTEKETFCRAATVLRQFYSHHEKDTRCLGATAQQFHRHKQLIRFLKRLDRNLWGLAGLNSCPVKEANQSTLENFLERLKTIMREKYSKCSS
How it was run: (§1)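 Detection used OD at 450 nm after biotinylated anti-cytokine antibody and avidin-HRP were applied to receptor-coated wells. Those wells had received, overnight at 4 °C, cytokine preincubated 2 h at 37 °C with compound at final 100 to 0.78 μM. IL-6 mixtures further contained IL-6Ra at 200 ng/ml final.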

IL-6 = IL-6 (Homo sapiens, UniProt P05231); assay: Immunoassay binding test, IL-6 (gp130 receptor, IL-6Ra present); details: IL-6Ra 200 ng/ml
How it was run: as §1

TNFα = TNFα (Homo sapiens, UniProt P01375); assay: Immunoassay binding test, TNFa; details: compounds 100 to 0.78 μM; TNFα 10 ng/ml, receptor 100 ng/ml; read-out: BINDING TNF IC50
How it was run: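 ELISA-type binding test: receptor-coated plates blocked with 2% BSA, then cytokine (six-point dilution series) preincubated 2 h at 37 °C and bound overnight at 4 °C. Detection used biotinylated anti-cytokine antibody and avidin-HRP, read as OD at 450 nm. For IL-6, IL-6Ra was present at 200 ng/ml final.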

IL-13 = IL-13 (Homo sapiens, UniProt P35225); assay: Immunoassay binding test, IL-13; details: for IC50: IL-13 400 ng/ml, receptor 100 ng/ml, read-out: BINDING IL13 IC50
How it was run: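 Receptor-coated plates; compounds (100 to 0.78 μM final) preincubated 2 h at 37° C with fixed cytokine, then bound to receptor overnight at 4° C. Bound cytokine detected with biotinylated anti-cytokine antibody and avidin-HRP, OD 450 nm.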

Sequence of TNFa/TNFRI interaction (P01375 77-233 limits assumed): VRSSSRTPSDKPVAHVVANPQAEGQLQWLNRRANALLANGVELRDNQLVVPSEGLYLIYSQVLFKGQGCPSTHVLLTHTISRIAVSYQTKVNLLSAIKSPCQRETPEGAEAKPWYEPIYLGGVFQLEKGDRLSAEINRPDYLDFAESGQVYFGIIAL
Sequence of TNFα (P01375 77-233 limits assumed, species assumed): as the sequence (P01375 77-233 limits assumed) above
Sequence of IL-13 (P35225 25-146, species assumed): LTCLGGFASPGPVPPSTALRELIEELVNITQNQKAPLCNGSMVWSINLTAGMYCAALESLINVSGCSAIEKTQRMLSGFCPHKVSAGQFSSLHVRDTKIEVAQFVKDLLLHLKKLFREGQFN
Sequence of IL-6 (P05231 30-212, species assumed): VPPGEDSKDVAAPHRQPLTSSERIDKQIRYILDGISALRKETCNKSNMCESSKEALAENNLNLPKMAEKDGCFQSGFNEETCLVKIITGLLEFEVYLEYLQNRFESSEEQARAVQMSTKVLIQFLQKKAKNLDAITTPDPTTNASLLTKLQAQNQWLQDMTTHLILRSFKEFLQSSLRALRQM

Structure (SMILES) | Displacement (%) (TNFa/TNFRI interaction) | BINDING IL4 % Neutra at 100 μM (IL-4) [%] | IC50 (IL-4) [µM] | BINDING IL6 % Neutra at 100 μM (IL-6) [%] | IC50 (TNFα) [µM] | BINDING IL13 % Neutra at 100 μM (IL-13) [%] | IC50 (IL-13) [µM] | Displacement EC50 TNFa in presence of compound: Difference (TNFa/TNFRI interaction; Compound EC50 minus SPD304 EC50) [µg/mL] | survival [1] [%]
O=S(=O)(c1ccccc1)n1cc(CN(CCCCCNC2CCCCC2)Cc2ccncc2)c2ccccc21 [Compound 33] | 273 | 96 | 4.1 | −11.8 | 4.6 | 95.4 | 10.5 | 0.0116 | 100
CN(CCOCCN(Cc1cccnc1F)Cc1cn(S(=O)(=O)c2ccccc2)c2ccccc12)C1CCCCC1 [Compound 65, N-(2-(2-(((2-fluoropyridin-3-yl)methyl)((1-(phenylsulfonyl)-1H-indol-3-yl)methyl)amino)ethoxy)ethyl)-N-methylcyclohexanamine] | 224 | 86.5 | 5.5 | 0 | 5.9 | 79.3 | > 50 |  | 60
O=S(=O)(c1ccccc1)n1cc(CN(CCCCNC2CCCC2)Cc2cccnc2F)c2ccccc21 [Compound 71, N′-cyclopentyl-N^4-((2-fluoropyridin-3-yl)methyl)-N^4-((1-(phenylsulfonyl)-1H-indol-3-yl)methyl)butane-1,4-diamine] | 199 | 92.4 | 6 | 2 | 9.8 | 89.7 | > 50 |  | 60
CCCN(CCOCCN(Cc1cccnc1F)Cc1cn(S(=O)(=O)c2ccccc2)c2ccccc12)C1CCCCC1 [Compound 101] | 152 | 81.9 | 7.9 | 0 | 17.4 | 56.3 | 35.5 |  | 
CCCCN(CCOCCN(Cc1cccnc1F)Cc1cn(S(=O)(=O)c2ccccc2)c2ccccc12)C1CCCCC1 [Compound 102] | 138 | 83.2 | 6.3 | 0 | 7.2 | 39.2 | > 25 |  | 
CN(CCOCCN(Cc1cccnc1F)Cc1cn(S(=O)(=O)c2ccccc2)c2ccccc12)C1CCCC1 [Compound 105, N-(2-(2-(((2-fluoropyridin-3-yl)methyl)((1-(phenylsulfonyl)-1H-indol-3-yl)methyl)amino)ethoxy)ethyl)-N-methylcyclopentanamine] | 162 | 91.2 | 11.5 | 0 | 7.5 | 74.3 | > 50 |  | 
CCN(CCOCCN(Cc1cccnc1F)Cc1cn(S(=O)(=O)c2ccccc2)c2ccccc12)C1CCCC1 [Compound 107, N-ethyl-N-(2-(2-(((2-fluoropyridin-3-yl)methyl)((1-(phenylsulfonyl)-1H-indol-3-yl)methyl)amino)ethoxy)ethyl)cyclopentanamine] | 169 | 74.9 | 5.1 | 0 | 7.2 | 66.1 | 25.9 |  | 
CCCN(CCOCCN(Cc1cccnc1F)Cc1cn(S(=O)(=O)c2ccccc2)c2ccccc12)C1CCCC1 [Compound 108, N-(2-(2-(((2-fluoropyridin-3-yl)methyl)((1-(phenylsulfonyl)-1H-indol-3-yl)methyl)amino)ethoxy)ethyl)-N-propylcyclopentanamine] | 165 | 76.7 | 9.1 | 0 | 9.6 | 58.8 | 40.4 |  | 

Continued, in another order:

Displacement (%) (TNFa/TNFRI interaction) | BINDING IL4 % Neutra at 100 μM (IL-4) [%] | IC50 (IL-4) [µM] | BINDING IL6 % Neutra at 100 μM (IL-6) [%] | IC50 (TNFα) [µM] | BINDING IL13 % Neutra at 100 μM (IL-13) [%] | IC50 (IL-13) [µM] | Structure (SMILES) | Displacement EC50 TNFa in presence of compound: Difference (TNFa/TNFRI interaction; Compound EC50 minus SPD304 EC50) [µg/mL] | survival [1] [%]
128 | 87.7 | 8.6 | 0 | 8 | 83.0 | > 50 | CCN(CCOCCN(Cc1cccnc1F)Cc1cn(S(=O)(=O)c2ccccc2)c2ccccc12)C1CCCCC1 [Compound 100] |  | 
159 | 91.1 | 10.5 | 0 | 10.2 | 89.1 | 38.9 | O=S(=O)(c1ccccc1)n1cc(CN(CCOCCNC2CCCC2)Cc2cccnc2F)c2ccccc21 [Compound 103, N-(2-(2-(((2-fluoropyridin-3-yl)methyl)((1-(phenylsulfonyl)-1H-indol-3-yl)methyl)amino)ethoxy)ethyl)cyclopentanamine] |  | 
123 | 88.2 | 13.2 | 0 | 9.2 | 79.8 | > 50 | CN(CCOCCN(Cc1cccnc1F)Cc1cn(S(=O)(=O)c2ccccc2)c2ccccc12)C1CCCC1 [Compound 104] |  | 
132 | 84.1 | 14.6 | 0 | 11.5 | 32.1 | > 50 | CCCN(CCOCCN(Cc1cccnc1F)Cc1cn(S(=O)(=O)c2ccccc2)c2ccccc12)C1CCCC1 [Compound 106] |  | 
207 | 86.3 | 9.6 | 1 | 11.5 | 7.8 |  | CCCCN(CCOCCN(Cc1cccnc1F)Cc1cn(S(=O)(=O)c2ccccc2)c2ccccc12)C1CCCC1 [Compound 109, N-butyl-N-(2-(2-(((2-fluoropyridin-3-yl)methyl)((1-(phenylsulfonyl)-1H-indol-3-yl)methyl)amino)ethoxy)ethyl)cyclopentanamine] |  | 
